Data from patent US10577315B2, “Compositions and methods for treatment of prostate carcinoma” (Pellficure Pharmaceuticals, Inc., priority 2014, dated 2020).

Columns and labels:
Format in all cases: cell-based
[1] = system: PTEN-P2/GFP prostate cancer cells; test: Effect of 1,4-naphthoquinone analogs on PTEN-P2/GFP cell proliferation (WST-1 cell viability, 24 h); settings: Mus musculus, WST-1, medium with 10% FBS and DHT, read-out: PTEN-P2/GFP cell proliferation, percent of control
Description: Cells are grown in phenol red-free DMEM medium containing 10% FBS, 2 mM L-glutamine, 100 U/ml penicillin/100 μg/ml streptomycin, insulin-selenium-transferrin (5 μg/ml insulin), and DHT 10^−8M final. Androgen withdrawal is achieved by not adding DHT to the medium. Cells are maintained in a humidified incubator at 37° C. and 5% CO2. G418 (100 μg/ml) is added to maintain stable expression of H2B-GFP.
(§1) 100 microliters of PTEN-P2/GFP prostate cancer cells were plated at a density of 8000 cells/well in 96-well plates (triplicates) in growing medium containing 10% Fetal Bovine Serum and DHT. The next day, increasing concentrations of a 1,4-naphthoquinone analog (diluted from 10 mM DMSO stock solutions) were added. DMSO used as solvent for all analogs, was kept constant through the 96-well plates. The control consisted of DMSO alone. The cells were subsequently incubated for 24 hours at 37° C. and 5% CO2 in normal cell growth conditions. Cell viability was assessed by adding 9 μL/well of WST-1 reagent (Clontech), which measured mitochondrial activity of live cells. […] The incubation time was 3 hours at 37° C. Optical density of the cell samples was measured at 460 nm, by using plate reader Spectra Max 250 (Molecular Devices). The drug was determined to be cytotoxic when OD values show an inverse correlation with analog concentrations. The results are shown in TABLES 3.1-3.4, FIGS. 2A-2E, and FIGS. 3A-3D.

[2] = system: human fibrosarcoma HT1080 cells; test: Dose response of 1,4-naphthoquinone analogs in human fibrosarcoma cells HT1080 (WST-1, 24 h)
Description: as §1, with “human fibrosarcoma HT1080” for “PTEN-P2/GFP prostate cancer”, “Serum, penicillin/streptomycin,” for “Serum”, “glutamine.” for “DHT.”, “concentrations.” for “concentrations. The results are shown in TABLES 3.1-3.4, FIGS. 2A-2E, and FIGS. 3A-3D.”

[3] = system: human breast cancer SKBR-3 cells; test: Dose response of 1,4-naphthoquinone analogs in human breast cancer cells SKBR-3 (WST-1, 24 h)
Description: as §1, with “human breast” for “PTEN-P2/GFP prostate”, “cancer SKBR-3” for “cancer”, “Serum, penicillin/streptomycin,” for “Serum”, “glutamine.” for “DHT.”, “concentrations.” for “concentrations. The results are shown in TABLES 3.1-3.4, FIGS. 2A-2E, and FIGS. 3A-3D.”

| SMILES | activity at 2 µM [1] | activity at 3 µM [1] | activity at 4 µM [1] | activity at 5 µM [1] | activity at 6 µM [1] | activity at 7 µM [1] | activity at 10 µM [1] | activity at 15 µM [1] | activity at 25 µM [1] | proliferation of human fibrosarcoma HT1080 cells, percent of control ([2]; 1.2 μM) | proliferation of human fibrosarcoma HT1080 cells, percent of control ([2]; 2.5 μM) | proliferation of human fibrosarcoma HT1080 cells, percent of control ([2]; 5 μM) | proliferation of human fibrosarcoma HT1080 cells, percent of control ([2]; 7.5 μM) | proliferation of human fibrosarcoma HT1080 cells, percent of control ([2]; 10 μM) | proliferation of human fibrosarcoma HT1080 cells, percent of control ([2]; 15 μM) | proliferation of human fibrosarcoma HT1080 cells, percent of control ([2]; 20 μM) | human SKBR-3 cell proliferation, percent of control ([3]; 1.2 μM) | human SKBR-3 cell proliferation, percent of control ([3]; 2.5 μM) | human SKBR-3 cell proliferation, percent of control ([3]; 5 μM) | human SKBR-3 cell proliferation, percent of control ([3]; 7.5 μM) | also measured |
| --- | --- | --- | --- | --- | --- | --- | --- | --- | --- | --- | --- | --- | --- | --- | --- | --- | --- | --- | --- | --- | --- |
| O=C1C=C(Oc2ccccc2)C(=O)c2ccccc21 [Analog F01, 2-phenoxy-1,4-naphthoquinone] | 91.7% | 77.9% | 63.4% | 43.1% | 30.9% | 24.1% | 13.2% | 9.77% | 9.86% | 85.21% of control | 81.88% of control | 66.22% of control | 73.66% of control | 69.05% of control | 41.07% of control | 18.29% of control | 99.47% of control | 105.05% of control | 85.33% of control | 61.15% of control | human SKBR-3 cell proliferation, percent of control ([3]; 10 μM): 4.30% of control; human SKBR-3 cell proliferation, percent of control ([3]; 15 μM): 1.90% of control; human SKBR-3 cell proliferation, percent of control ([3]; 20 μM): 2.19% of control |
| O=C1C=C(Oc2c(F)c(F)c(F)c(F)c2F)C(=O)c2ccccc21 [Analog F02, 2-(2,3,4,5,6-pentafluorophenoxy)-1,4-naphthoquinone] | 97.9% | 94.8% | 93.3% | 90.3% | 82.6% | 74.3% | 47.6% | 28.7% | 12.3% | 84.28% of control | 82.46% of control | 82.96% of control | 76.72% of control | 74.71% of control | 65.17% of control | 63.04% of control | 107.66% of control | 116.47% of control | 107.37% of control | 94.47% of control | human SKBR-3 cell proliferation, percent of control ([3]; 10 μM): 75.45% of control; human SKBR-3 cell proliferation, percent of control ([3]; 15 μM): 35.60% of control; human SKBR-3 cell proliferation, percent of control ([3]; 20 μM): 3.02% of control |
| CC(=O)Nc1ccc(OC2=CC(=O)c3ccccc3C2=O)cc1 [Analog F03, 2-(4-acetamidophenoxy)-1,4-naphthoquinone] | 97.8% | 97.1% | 97.1% | 97.1% | 85% | 76.2% | 43% | 20% | 9.61% | 81.33% of control | 85.67% of control | 74.59% of control | 72.11% of control | 75.09% of control | 55.37% of control | 38.21% of control | 88.89% of control | 87.44% of control | 64.41% of control | 36.88% of control | human SKBR-3 cell proliferation, percent of control ([3]; 10 μM): 7.32% of control; human SKBR-3 cell proliferation, percent of control ([3]; 15 μM): 1.24% of control; human SKBR-3 cell proliferation, percent of control ([3]; 20 μM): 1.57% of control |
| CC1=CC(=O)c2c(OCCCCI)cccc2C1=O [Analog F48, 5-(4-iodobutoxy)-2-methyl-1,4-naphthoquinone] | 102% | 102% | 102% | 109% | 112% | 115% | 103% | – | 11% | – | – | – | – | – | – | – | – | – | – | – | activity at 1 µM [1]: 103%; activity at 50 µM [1]: 10% |
| COc1ccc(OC)c2c1C(=O)C=CC2=O [Analog F52, 5,8-dimethoxy-1,4-naphthoquinone] | 108% | 112% | 113% | 111% | 106% | 93.3% | 52.1% | – | 11.2% | – | – | – | – | – | – | – | – | – | – | – | activity at 1 µM [1]: 106%; activity at 50 µM [1]: 11.9% |
| CCOC1=CC(=O)c2ccccc2C1=O [Analog F53, 2-ethoxy-1,4-naphthoquinone] | 91.8% | 89.9% | 93.2% | 93.7% | 92.5% | 93.4% | 94.1% | – | 28.6% | – | – | – | – | – | – | – | – | – | – | – | activity at 1 µM [1]: 94%; activity at 50 µM [1]: 12.9% |
| O=C1C(Br)=C(Oc2ccc(OC3=C(Br)C(=O)c4ccccc4C3=O)cc2)C(=O)c2ccccc21 [Analog F57, 3,3′-(1,4-phenylenebis(oxy))bis(2-bromonaphthalene-1,4-dione)] | 98.2% | 98% | 98.6% | 98.9% | 95.7% | 86.7% | 61.4% | 42.8% | 17.4% | – | – | – | – | – | – | – | – | – | – | – | – |
